Measurements published in ChEMBL document CHEMBL1201862, “PubChem BioAssay data set” (2004).
Activity calls are given as the source filed them.

Experiments:
[1] = target: FAD-linked sulfhydryl oxidase ALR (Homo sapiens, UniProt P55789); experiment: inhibitors of human ALR sulfhydryl oxidase, dose response, biochemical, H2O2 detection, luminescence, cherry-pick (AID 493248)
MDCK = experiment: antiviral activity against H1N1 influenza, dose response, cell-based, strain KY136 (AID 540257); assay type: functional; details: Canis lupus familiaris
Streptococcus = experiment: Group A Streptococcus viability loss, dose response, counter-screen for streptokinase expression inhibitor project, luminescence, BacTiterGlo (AID 1915); assay type: functional, organism-based;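 further: potency for reduction of bacterial viability or growth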
[2] = target: T1, Intestinal-type alkaline phosphatase (Homo sapiens, UniProt P09923); experiment: human intestinal alkaline phosphatase activators, dose response, biochemical, luminescence, uHTS hits (AID 463120); assay type: functional
T1 sequence (P09923 whole entry): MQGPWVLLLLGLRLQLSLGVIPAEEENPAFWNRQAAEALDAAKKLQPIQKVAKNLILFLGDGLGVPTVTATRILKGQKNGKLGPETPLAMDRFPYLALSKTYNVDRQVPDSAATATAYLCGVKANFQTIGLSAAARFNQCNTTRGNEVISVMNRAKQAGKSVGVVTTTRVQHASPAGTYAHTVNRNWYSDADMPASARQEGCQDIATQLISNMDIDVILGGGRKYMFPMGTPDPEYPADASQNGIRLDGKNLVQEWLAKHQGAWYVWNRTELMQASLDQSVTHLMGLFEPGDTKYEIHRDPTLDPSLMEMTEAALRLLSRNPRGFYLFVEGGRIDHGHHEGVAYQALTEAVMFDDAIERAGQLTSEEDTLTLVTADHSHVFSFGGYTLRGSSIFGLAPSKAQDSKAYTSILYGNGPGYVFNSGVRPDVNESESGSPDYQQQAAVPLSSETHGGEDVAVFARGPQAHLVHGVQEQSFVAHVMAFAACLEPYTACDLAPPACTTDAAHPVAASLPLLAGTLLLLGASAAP

Streptokinase A = target: T2, Streptokinase A (Streptococcus pyogenes serotype M1, UniProt P10520); experiment: S. pyogenes streptokinase expression inhibitors, potency, dose response, plasminogen activation absorbance, OD405 (AID 1914); assay type: functional, Streptococcus pyogenes M1 GAS;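 further: secreted streptokinase activity via plasminogen activation per viability signal from cell pellet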
T2 sequence (P10520 whole entry): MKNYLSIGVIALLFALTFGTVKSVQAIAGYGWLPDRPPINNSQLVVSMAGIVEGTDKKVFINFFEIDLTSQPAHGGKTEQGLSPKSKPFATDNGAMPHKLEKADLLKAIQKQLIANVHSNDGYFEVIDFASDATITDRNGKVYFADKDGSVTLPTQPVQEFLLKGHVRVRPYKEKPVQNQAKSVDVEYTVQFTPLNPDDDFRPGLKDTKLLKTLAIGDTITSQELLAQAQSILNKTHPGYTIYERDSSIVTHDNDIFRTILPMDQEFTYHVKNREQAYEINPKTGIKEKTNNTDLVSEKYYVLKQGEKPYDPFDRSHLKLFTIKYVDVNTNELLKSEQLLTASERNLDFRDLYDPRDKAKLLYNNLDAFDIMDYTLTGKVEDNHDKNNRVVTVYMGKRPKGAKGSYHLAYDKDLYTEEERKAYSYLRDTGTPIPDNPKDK

[3] = target: Intestinal-type alkaline phosphatase (Mus musculus, UniProt P24822); experiment: PubChem AID 488875; assay type: functional
Sequence of Intestinal-type alkaline phosphatase (Mus musculus, UniProt P24822) (P24822 whole entry): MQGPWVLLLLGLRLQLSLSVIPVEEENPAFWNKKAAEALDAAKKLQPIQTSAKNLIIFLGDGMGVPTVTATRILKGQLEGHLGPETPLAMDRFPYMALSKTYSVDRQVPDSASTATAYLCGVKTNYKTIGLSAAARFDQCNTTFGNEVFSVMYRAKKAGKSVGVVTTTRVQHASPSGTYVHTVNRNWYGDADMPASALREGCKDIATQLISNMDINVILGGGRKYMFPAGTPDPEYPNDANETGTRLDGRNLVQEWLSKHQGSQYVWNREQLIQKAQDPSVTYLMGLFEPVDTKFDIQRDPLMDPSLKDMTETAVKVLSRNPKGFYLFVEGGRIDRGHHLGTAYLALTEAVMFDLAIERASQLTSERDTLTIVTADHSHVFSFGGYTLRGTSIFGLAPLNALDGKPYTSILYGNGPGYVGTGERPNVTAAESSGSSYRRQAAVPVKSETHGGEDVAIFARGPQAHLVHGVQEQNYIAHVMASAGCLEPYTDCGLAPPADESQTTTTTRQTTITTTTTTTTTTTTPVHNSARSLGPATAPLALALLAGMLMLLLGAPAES

[4] = tested on: Streptococcus sp. 'group A'; experiment: growth inhibition of control SK(-) GAS strain, dose response, counter-screen for streptokinase expression inhibitor project, luminescence, kanamycin, BacTiterGlo, confirmation (AID 1900); assay type: functional, organism-based
[5] = target: T1, Intestinal-type alkaline phosphatase; experiment: human IAP activators, dose response, biochemical, luminescent, uHTS hits, set 2 (AID 488817); assay type: functional;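 further: potency of activators that raise enzyme activity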
[6] = target: T3, Alkaline phosphatase, tissue-nonspecific isozyme (Homo sapiens, UniProt P05186); experiment: TNAP enzyme activators, dose response, selectivity assay for human IAP activator project, biochemical, TNAP isozyme, human IAP uHTS hits (AID 488886); assay type: functional;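 further: potency of compounds raising TNAP activity as a selectivity check on IAP activators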
T3 sequence (P05186 whole entry): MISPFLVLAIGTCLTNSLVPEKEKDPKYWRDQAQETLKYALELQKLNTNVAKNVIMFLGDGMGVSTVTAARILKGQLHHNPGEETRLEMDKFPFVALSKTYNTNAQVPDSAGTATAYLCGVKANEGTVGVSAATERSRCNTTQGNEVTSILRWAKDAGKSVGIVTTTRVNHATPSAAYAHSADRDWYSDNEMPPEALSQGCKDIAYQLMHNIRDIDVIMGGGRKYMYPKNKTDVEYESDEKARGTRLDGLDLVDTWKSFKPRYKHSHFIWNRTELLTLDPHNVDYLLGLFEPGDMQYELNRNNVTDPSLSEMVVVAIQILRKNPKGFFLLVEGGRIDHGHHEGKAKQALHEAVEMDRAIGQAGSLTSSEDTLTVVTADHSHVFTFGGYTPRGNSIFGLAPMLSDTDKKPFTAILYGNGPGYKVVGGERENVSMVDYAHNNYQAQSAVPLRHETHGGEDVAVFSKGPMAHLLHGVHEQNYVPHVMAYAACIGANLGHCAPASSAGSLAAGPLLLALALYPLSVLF

[7] = target: T4, High affinity choline transporter 1 (Homo sapiens, UniProt Q9GZV3); experiment: CHT inhibitors, dose response, cell-based, 5-point CRC, membrane potential dye (AID 504840); assay type: functional
T4 sequence (Q9GZV3 whole entry): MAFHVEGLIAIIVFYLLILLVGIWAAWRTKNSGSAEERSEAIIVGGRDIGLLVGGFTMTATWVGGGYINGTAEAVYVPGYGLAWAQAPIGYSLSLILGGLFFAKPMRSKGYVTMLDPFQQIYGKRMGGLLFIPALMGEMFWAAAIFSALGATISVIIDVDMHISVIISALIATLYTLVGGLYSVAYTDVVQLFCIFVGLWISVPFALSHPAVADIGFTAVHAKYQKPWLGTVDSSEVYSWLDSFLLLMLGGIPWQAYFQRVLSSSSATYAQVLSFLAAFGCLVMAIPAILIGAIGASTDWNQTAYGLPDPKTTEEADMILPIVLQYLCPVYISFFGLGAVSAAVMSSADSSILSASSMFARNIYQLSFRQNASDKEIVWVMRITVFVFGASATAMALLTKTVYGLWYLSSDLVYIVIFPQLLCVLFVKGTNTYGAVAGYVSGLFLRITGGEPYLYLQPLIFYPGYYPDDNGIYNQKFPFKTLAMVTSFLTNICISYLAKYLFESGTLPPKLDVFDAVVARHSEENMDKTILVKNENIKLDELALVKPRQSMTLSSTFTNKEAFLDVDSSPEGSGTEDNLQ

[8] = target: T5, Corticotropin-releasing factor receptor 2/Corticotropin-releasing factor-binding protein (Homo sapiens, UniProt P24387+Q13324); experiment: activators of CRF receptor 2 with binding protein – uHTS hits, confirmation (AID 602473); assay type: functional; details: read-out: EC50_Mean
T5 sequence (Q13324 whole entry): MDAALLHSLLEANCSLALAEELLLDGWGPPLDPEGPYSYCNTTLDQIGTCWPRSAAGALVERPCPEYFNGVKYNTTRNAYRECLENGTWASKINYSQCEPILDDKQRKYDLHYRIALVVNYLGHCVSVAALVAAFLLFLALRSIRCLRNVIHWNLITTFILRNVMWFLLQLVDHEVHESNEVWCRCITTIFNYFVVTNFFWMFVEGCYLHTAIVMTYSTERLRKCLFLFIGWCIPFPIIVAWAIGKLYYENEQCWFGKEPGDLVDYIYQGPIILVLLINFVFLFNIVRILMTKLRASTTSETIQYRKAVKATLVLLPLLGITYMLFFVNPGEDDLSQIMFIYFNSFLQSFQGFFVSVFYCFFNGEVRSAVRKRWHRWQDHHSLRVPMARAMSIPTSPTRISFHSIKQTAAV
T5 sequence (P24387 whole entry): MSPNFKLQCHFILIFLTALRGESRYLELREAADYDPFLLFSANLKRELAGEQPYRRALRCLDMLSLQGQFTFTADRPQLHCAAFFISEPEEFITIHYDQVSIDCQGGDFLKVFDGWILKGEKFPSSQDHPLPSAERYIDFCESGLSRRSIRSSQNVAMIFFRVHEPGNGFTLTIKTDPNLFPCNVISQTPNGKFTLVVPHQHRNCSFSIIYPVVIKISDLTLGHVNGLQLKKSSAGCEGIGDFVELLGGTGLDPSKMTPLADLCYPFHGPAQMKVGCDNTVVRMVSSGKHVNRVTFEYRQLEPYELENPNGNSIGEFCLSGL

Keap1/Nrf2 = Keap1/Nrf2 (Homo sapiens, UniProt Q14145); experiment: Keap1-Nrf2 protein-protein interaction inhibitors, dose response, biochemical, fluorescence polarization, cherry-picked samples (AID 588683)
Sequence of Keap1/Nrf2 (Q16236 whole entry): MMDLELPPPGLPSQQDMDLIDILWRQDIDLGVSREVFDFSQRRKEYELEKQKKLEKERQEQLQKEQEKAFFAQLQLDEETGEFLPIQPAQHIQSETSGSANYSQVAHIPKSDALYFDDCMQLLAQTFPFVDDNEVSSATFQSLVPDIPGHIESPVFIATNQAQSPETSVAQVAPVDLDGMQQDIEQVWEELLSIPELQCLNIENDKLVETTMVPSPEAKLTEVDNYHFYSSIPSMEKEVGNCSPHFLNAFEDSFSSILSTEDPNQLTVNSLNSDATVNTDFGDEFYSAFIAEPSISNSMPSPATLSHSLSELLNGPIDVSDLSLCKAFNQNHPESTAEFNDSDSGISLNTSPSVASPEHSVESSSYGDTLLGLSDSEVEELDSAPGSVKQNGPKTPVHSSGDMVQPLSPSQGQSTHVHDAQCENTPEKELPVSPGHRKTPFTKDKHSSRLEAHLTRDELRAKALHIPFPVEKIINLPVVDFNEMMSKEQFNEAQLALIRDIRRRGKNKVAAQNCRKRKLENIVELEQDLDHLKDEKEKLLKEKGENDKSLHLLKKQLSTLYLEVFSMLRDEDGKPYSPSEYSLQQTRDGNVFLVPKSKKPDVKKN
Sequence of Keap1/Nrf2 (Q14145 whole entry): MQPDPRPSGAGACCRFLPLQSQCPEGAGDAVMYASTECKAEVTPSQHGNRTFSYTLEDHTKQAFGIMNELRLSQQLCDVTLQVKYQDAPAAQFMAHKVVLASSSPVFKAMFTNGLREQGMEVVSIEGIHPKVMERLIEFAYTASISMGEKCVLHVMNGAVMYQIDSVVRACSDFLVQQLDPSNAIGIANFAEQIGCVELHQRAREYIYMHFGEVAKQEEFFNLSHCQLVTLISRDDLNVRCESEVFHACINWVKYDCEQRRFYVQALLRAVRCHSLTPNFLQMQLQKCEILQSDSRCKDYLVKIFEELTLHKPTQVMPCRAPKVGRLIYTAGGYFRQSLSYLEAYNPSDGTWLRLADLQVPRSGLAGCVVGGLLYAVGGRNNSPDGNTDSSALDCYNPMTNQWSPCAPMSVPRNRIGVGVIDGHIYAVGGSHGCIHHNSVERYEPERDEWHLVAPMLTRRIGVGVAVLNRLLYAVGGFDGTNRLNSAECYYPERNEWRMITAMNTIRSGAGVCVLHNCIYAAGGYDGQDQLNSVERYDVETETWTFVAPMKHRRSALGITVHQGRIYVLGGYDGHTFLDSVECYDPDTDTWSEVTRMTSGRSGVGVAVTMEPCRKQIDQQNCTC

[9] = target: UDP-galactopyranose mutase (Mycobacterium tuberculosis, UniProt P9WIQ1); experiment: Inhibitors of Mycobacterium tuberculosis UDP-galactopyranose mutase (UGM) enzyme Measured in Biochemical System Using Plate Reader - 2105-02_Inhibitor_Dose_CherryPick_Activity. [Related pubchem assays (depositor defined):AID504439]
Sequence of UDP-galactopyranose mutase (P9WIQ1 whole entry): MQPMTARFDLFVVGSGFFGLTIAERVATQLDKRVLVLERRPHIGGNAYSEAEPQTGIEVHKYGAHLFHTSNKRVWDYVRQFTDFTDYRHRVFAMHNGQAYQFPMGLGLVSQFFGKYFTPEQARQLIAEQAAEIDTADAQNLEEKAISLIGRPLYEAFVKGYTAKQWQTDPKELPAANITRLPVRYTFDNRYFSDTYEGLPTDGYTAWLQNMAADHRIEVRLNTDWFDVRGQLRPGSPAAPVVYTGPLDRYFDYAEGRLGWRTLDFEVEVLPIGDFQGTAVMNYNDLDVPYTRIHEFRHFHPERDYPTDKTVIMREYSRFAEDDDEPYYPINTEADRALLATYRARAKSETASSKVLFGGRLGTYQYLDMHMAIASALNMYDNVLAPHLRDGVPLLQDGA

Candida albicans = experiment: growth inhibition of resistant C. albicans, dose response, CaCi-8, fluconazole, Alamar Blue, dry powder (AID 488807); assay type: functional, organism-based
[10] = HEp-2 cell cytotoxicity, dose response, cytotoxicity control for RSV inhibitor project, HTS (AID 2410); assay type: functional; details: human respiratory syncytial virus
[11] = target: Dual specificity protein phosphatase 6 (Rattus norvegicus, UniProt Q64346); assay type: functional;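 further: confirmatory in vitro dose-response testing of MKP-3 inhibition; recombinant His-tagged MKP-3 made in E. coli BL21 with OMFP substrate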
Sequence of Dual specificity protein phosphatase 6 (Q64346 whole entry): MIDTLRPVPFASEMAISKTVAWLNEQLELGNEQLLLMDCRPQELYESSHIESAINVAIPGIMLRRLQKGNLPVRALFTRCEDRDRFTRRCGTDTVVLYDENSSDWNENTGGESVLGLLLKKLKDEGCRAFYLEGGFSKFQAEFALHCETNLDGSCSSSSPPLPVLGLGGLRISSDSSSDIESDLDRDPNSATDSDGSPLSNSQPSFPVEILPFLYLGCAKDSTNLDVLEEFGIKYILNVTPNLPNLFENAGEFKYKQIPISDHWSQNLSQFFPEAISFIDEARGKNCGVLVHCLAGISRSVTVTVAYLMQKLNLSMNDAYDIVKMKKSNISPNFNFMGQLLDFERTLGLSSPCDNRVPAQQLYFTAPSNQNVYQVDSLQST

[12] = target: T6, Tyrosine-protein phosphatase non-receptor type 7 (Homo sapiens, UniProt P35236); experiment: redox-dependent HePTP inhibition, mechanism study, biochemical, fluorescence (AID 2068); assay type: functional
T6 sequence (P35236 whole entry): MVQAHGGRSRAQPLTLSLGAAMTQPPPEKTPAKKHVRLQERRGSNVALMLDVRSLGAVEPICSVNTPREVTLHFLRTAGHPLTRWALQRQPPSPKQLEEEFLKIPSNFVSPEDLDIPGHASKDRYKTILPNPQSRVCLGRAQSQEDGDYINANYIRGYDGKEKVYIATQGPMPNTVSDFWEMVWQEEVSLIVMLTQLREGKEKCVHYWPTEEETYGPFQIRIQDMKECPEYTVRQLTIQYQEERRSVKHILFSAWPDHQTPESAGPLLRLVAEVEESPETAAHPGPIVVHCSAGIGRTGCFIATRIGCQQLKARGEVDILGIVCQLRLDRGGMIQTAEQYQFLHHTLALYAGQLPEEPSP

[13] = target: Dual specificity protein phosphatase 3 (Homo sapiens, UniProt P51452); experiment: SAR VHR1 Fluorescent Assay for In Vitro dose response studies Set 2. [Related pubchem assays (depositor defined):AID1654, AID1661, AID1878]; assay type: functional
Sequence of Dual specificity protein phosphatase 3 (P51452 whole entry): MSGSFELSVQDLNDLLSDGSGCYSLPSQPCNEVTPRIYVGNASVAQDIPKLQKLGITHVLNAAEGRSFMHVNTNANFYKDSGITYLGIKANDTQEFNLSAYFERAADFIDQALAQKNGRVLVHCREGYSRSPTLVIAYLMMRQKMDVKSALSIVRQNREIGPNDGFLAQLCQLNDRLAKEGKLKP

[14] = growth induction of Burl-1 ts yeast mutant, dose response, counter-screen for SUMOylation pathway inhibitor project, whole organism, S. cerevisiae, luminescence (AID 463199); assay type: functional
[15] = cytotoxicity in HMLE control line with eGFP shRNA, dose response, counter-screen for HMLE_sh_ECad selective toxicity project, cell-based, HMLE_sh_eGFP, luminescence (AID 463074); assay type: functional, Homo sapiens;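 further: HMLE human mammary epithelial cells expressing control shRNA against eGFP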
[16] = Luminescence Cell-Based Dose Retest to Confirm Inhibitors of Cancer Stem Cells. [Related pubchem assays (depositor defined):AID2717, AID2721]; assay type: functional; details: Homo sapiens

Sequence of FAD-linked sulfhydryl oxidase ALR (P55789 whole entry): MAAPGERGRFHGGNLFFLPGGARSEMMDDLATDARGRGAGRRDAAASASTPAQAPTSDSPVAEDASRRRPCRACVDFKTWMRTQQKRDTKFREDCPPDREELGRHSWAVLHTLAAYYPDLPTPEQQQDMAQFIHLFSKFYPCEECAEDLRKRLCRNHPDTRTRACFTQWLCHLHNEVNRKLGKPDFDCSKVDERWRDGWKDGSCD

Q: What does the source list for `Cc1ccc(N2C(=O)C(CC(=O)Nc3cccc(F)c3)N(C3CC3)C2=O)cc1` (centres undefined)?
A: AC50 [1]: < 0.014 µM (active); IC50 (MDCK): 52.3 µM (active)

Q: With `Cc1cccc(CC(Cc2nc3ccccc3[nH]2)c2nc3ccccc3[nH]2)c1` (centres undefined) as the compound, how does the EC50 (Streptococcus) read?
A: Its EC50 is 26.7 µM (active).

Q: And the EC50 [2]?
A: The EC50 was 29.8 µM (active).

Q: And the EC50 (Streptokinase A)?
A: The EC50 was > 150 µM (not active).

Q: What about the EC50 [3] of the same compound?
A: Its EC50 is 28.9 µM (active).

Q: And the EC50 [4]?
A: The EC50 was 9.33 µM (active).

Q: What about the EC50 [5] of the same compound?
A: Its EC50 is 47.7 µM (active).

Q: What about the EC50 [6] of the same compound?
A: The EC50 was 62.1 µM (active).

Q: What about the IC50 [7] of the same compound?
A: The IC50 was 12.6 µM (active).

Q: Which results are given for `CN1/C(=C\C=C(C#N)C#N)C(C)(C)c2ccccc21`?
A: EC50 [8]: 10.8 µM (active); AC50 (Keap1/Nrf2): 28.7 µM (active); AC50 [9]: 114 µM (active)

Q: Which AC50 (Candida albicans) does the source give for `O=C(Cn1c2ccccc2c2nc3n(c(=O)c21)CCS3)N1CCCC1` here?
A: Its AC50 is 2.91 µM (active).

Q: For `NS(=O)(=O)c1cc(C(=O)Nc2ccc3c(c2)CCC3)ccc1Cl`, which CC50 [10] is on record?
A: Its CC50 is 39 µM (active).

Q: What about the IC50 [11] of the same compound?
A: The IC50 was > 100 µM (inactive).

Q: What about the IC50 [12] of the same compound?
A: The IC50 was > 100 µM (inactive).

Q: What about the IC50 [13] of the same compound?
A: The IC50 was > 100 µM (inactive).

Q: With `CC(C)CCn1c(=O)c2ccccc2c2ccccc2c1=O` as the compound, how does the AC50 [14] read?
A: Its AC50 is 58.1 µM (active).

Q: With `Cc1ccc(N(C)S(=O)(=O)c2cccc(C(=O)Nc3nc4ccccc4[nH]3)c2)cc1` as the compound, how does the EC50 (Streptococcus) read?
A: The EC50 was 17.4 µM (active).

Q: What about the EC50 (Streptokinase A) of the same compound?
A: The EC50 was > 150 µM (not active).

Q: And the AC50 [15]?
A: The AC50 was 32.2 µM (active).

Q: And the EC50 [4]?
A: The EC50 was 1.71 µM (active).

Q: And the AC50 [16]?
A: The AC50 was 4.1 µM (active).
